Laboratory results reported in US4272528A, “Phosphonoacetyl aminoacids” (Abbott Laboratories, priority 1980, dated 1981).
Read-outs that look alike come from different tables or passages of the source.

Target: herpes DNA polymerase (Human herpesvirus 1, UniProt P04293)
Assay: herpes DNA polymerase activity assay
Type: biochemical
Conditions: for % Inhibition at Drug Level 1.666 μg/ml / % Inhibition at Drug Level 16.6 μg/ml / % Inhibition at Drug Level 166 μg/ml: fixed dilution
Experimental: The above compounds were tested for herpes DNA polymerase activity in the manner shown in Example 9 of U.S. Pat. No. 4,138,432. The assay, using fixed dilutions of the above compounds, produced the following results:
When variable solution concentrations were used, the results were as follows: […]

[1] = variable solution concentrations, read-out: ID50 (the source's name) (converted)

Chain of herpes DNA polymerase (P04293 whole entry): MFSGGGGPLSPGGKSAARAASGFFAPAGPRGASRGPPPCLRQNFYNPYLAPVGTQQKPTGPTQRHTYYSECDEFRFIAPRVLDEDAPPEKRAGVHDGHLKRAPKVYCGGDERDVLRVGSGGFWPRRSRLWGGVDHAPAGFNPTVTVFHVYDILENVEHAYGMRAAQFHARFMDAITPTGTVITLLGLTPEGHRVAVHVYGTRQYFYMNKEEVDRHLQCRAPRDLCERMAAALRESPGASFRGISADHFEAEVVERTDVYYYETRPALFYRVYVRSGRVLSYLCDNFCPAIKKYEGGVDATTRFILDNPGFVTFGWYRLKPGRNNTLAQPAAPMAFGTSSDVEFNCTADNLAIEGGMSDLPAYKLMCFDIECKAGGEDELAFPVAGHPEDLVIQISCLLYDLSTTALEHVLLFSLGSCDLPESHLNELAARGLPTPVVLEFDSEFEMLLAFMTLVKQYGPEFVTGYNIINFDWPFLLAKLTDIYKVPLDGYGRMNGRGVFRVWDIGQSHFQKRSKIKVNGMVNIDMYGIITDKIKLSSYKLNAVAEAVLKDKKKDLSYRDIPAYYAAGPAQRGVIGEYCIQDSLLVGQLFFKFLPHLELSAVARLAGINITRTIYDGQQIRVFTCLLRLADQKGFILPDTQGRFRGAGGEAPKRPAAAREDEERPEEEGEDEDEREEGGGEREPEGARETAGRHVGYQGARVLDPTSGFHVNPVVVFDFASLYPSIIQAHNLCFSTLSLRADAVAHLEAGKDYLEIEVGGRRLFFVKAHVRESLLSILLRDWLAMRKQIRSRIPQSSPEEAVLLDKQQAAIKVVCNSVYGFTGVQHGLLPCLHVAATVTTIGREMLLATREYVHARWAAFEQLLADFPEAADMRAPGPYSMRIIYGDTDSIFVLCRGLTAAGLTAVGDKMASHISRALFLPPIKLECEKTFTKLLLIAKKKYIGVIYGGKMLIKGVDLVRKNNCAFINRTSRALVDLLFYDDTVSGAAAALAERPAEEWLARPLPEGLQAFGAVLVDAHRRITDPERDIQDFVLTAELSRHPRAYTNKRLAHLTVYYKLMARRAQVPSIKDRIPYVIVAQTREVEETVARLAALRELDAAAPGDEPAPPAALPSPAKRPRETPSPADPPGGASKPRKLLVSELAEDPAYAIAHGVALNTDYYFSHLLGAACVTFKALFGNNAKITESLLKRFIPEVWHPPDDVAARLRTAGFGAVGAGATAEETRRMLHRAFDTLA

IC50 [1] | Compound | % Inhibition at Drug Level 1.666 μg/ml | % Inhibition at Drug Level 16.6 μg/ml | % Inhibition at Drug Level 166 μg/ml | IC50
– | O=C(O)CP(=O)(O)O [PAA-Na, reference compound] | 82% | 98% | 99% | –
– | C[C@H](NC(=O)CP(=O)(O)O)C(=O)O [Example 2 (L), PAA-L-Ala] | – | – | 59% | –
10.6 µM | O=C(O)CC(NC(=O)CNC(=O)CP(=O)(O)O)C(=O)O (stereo not shown) [Example 4, PAA-Gly-Asp] | 39% | 77% | 93% | –
– | O=C(O)CNC(=O)CP(=O)(O)O [Example 1, PAA-Gly] | 33% | 56% | 72% | 28.9 µM
203 µM | N=C(N)NCCCC(NC(=O)CP(=O)(O)O)C(=O)O (stereo not shown) [PAA-Arg, reference compound] | – | – | – | –
– | C[C@@H](NC(=O)CP(=O)(O)O)C(=O)O [Example 2 (D), PAA-D-Ala] | 19% | 68% | 87% | 31.3 µM
– | O=C(O)CCNC(=O)CP(=O)(O)O [Example 3, PAA-β-Ala] | 15% | 59% | 88% | 50.2 µM

Compound | IC50 [1] | % Inhibition at Drug Level 1.666 μg/ml | % Inhibition at Drug Level 16.6 μg/ml | % Inhibition at Drug Level 166 μg/ml | IC50
O=C(O)C[C@H](NC(=O)CP(=O)(O)O)C(=O)O [PAA-L-Asp, reference compound] | 141 µM | – | – | – | –
